Assay results as given in ChEMBL document CHEMBL1144273, “Synthesis and SAR studies of 3-phenoxypropyl piperidine analogues as ORL1 (NOP) receptor agonists” (Bioorg Med Chem Lett, 2005).

System: Mus musculus
Experiment: In vivo effective dose against mouse formalin paw after intravenous administration of the compound
Format: functional

Structure (SMILES): COc1ccc(C)c(OC(CCN2CCC(n3c(=O)[nH]c4ccccc43)CC2)C(C)C)c1 (stereo unspecified) [ORGANON]
- ED50: 1.07 µmol/kg
